# Source: ChEMBL document CHEMBL3046248, “Synthesis and Fungicidal Activities of 2-Alkoxyiminoacetamides with a 4, 5-Dihydroisoxazole Ring” (1998)
# Tested on: Pseudoperonospora cubensis
# Assay: Fungicidal activity against Pseudoperonospora cubensis in cucumber plant assessed as cucumber downy mildew disease control at 7.8 ppm at 22 +/- 2 degC, 98% RH measured after 10 days
# Assay type: functional
row,SMILES,Activity [%]
1,CO/N=C(\C#N)C(=O)NC1=NOC(C)(C)C1,70
2,CO/N=C(\C#N)C(=O)NCC1=NOC(C)C1 (stereo not given),70
3,CO/N=C(\C#N)C(=O)NCC1=NOC(C)(C)C1,70

# Tested on: Pseudoperonospora cubensis
# Assay: Fungicidal activity against Pseudoperonospora cubensis in cucumber plant assessed as cucumber downy mildew disease control at 31.3 ppm at 22 +/- 2 degC, 98% RH measured after 10 days
# Assay type: functional
row,SMILES,Activity [%]
1,CCO/N=C(\C#N)C(=O)NC1=NOC(C)C1 (stereo not given),70
2,CCO/N=C(C(=O)NC1=NOC(C)(C)C1)\C(N)=N\O,70
3,CC(C)O/N=C(\C#N)C(=O)NC1=NOC(C)C1 (stereo not given),70
4,CCO/N=C(\C#N)C(=O)NCC1=NOC(C)C1 (stereo not given),70
5,CO/N=C(\C#N)C(=O)NC1=NOC(C)C1 (stereo not given),70
6,CO/N=C(\C#N)C(=O)NCC1=NOC(C(C)(C)C)C1 (stereo not given),70
7,CO/N=C(C(=O)NC1=NOC(C)C1)\C(N)=N\O (stereo not given),70
8,CO/N=C(\C#N)C(=O)NCC#N,70
9,CC1CC(CNC(=O)/C(C#N)=N/OCc2ccccc2)=NO1 (stereo not given),70
10,CO/N=C(\C#N)C(=O)NCc1cccnc1,70
11,CCC1(C)CC(NC(=O)C(=N/OC)/C(N)=N/O)=NO1 (stereo not given),70
12,CO/N=C(\C#N)C(=O)NCc1cc(C)on1,70
13,CO/N=C(C(=O)NC1=NOC(C)(C)C1)\C(N)=N\O,70

# Tested on: Pseudoperonospora cubensis
# Assay: Fungicidal activity against Pseudoperonospora cubensis in cucumber plant assessed as cucumber downy mildew disease control at 500 ppm at 22 +/- 2 degC, 98% RH measured after 10 days
# Assay type: functional
row,SMILES,Activity [%]
1,CO/N=C(\C(=N)OC)C(=O)NC1=NOC(C)(C)C1,<70
2,C=CCNC(=O)/C(C#N)=N/OC,<70
3,N#C/C(=N\OCc1ccccc1)C(=O)NCCCl,<70
4,CO/N=C(\C#N)C(=O)NCc1ccsc1,<70
5,CO/N=C(\C#N)C(=O)NC1=NOC(c2ccccc2)C1 (stereo not given),<70
6,CO/N=C(\C(N)=O)C(=O)NC1=NOC(C)(C)C1,<70
7,CC1CC(NC(=O)/C(C#N)=N/OCc2ccccc2)=NO1 (stereo not given),<70
8,C#CCNC(=O)/C(C#N)=N/OC,<70
9,CO/N=C(/C(=O)NC1=NOC(C)(C)C1)C(=O)OC,<70
10,CNC(=O)/C(=N\OC)C(=O)NC1=NOC(C)(C)C1,<70
11,CC1(C)CC(NC(=O)C(=N/OCc2ccccc2)/C(N)=N/O)=NO1,<70
12,CO/N=C(/C(=O)NC1=NOC(C)(C)C1)C(=O)N(C)C,<70

# Tested on: Pseudoperonospora cubensis
# Assay: Fungicidal activity against Pseudoperonospora cubensis in cucumber plant assessed as cucumber downy mildew disease control at 125 ppm at 22 +/- 2 degC, 98% RH measured after 10 days
# Assay type: functional
row,SMILES,Activity [%]
1,CC(C)O/N=C(\C#N)C(=O)NCC1=NOC(C)C1 (stereo not given),70
2,CCO/N=C(\C#N)C(=O)NC1=NOC(C)C1 (stereo not given),70
3,CC(C)O/N=C(\C#N)C(=O)NC1=NOC(C)C1 (stereo not given),70
4,CO/N=C(\C#N)C(=O)NCC#N,70
5,CO/N=C(\C(=N)SC)C(=O)NC1=NOC(C)(C)C1,70
6,CO/N=C(\C#N)C(=O)NCC1=NOC(c2ccccc2)C1 (stereo not given),70
7,CO/N=C(\C#N)C(=O)NC1=NOC(C(C)(C)C)C1 (stereo not given),70
